# Source: US8541575B2, “3,4-diarylpyrazoles as protein kinase inhibitors” (Nerviano Medical Sciences S.R.L., priority 2008, dated 2013)
# Columns and labels:
# Assay type in all cases: cell-based
# [1] = system: p-MAPK (T202/Y204) in A375 human melanoma cells, having a mutated B-RAF; assay: p-MAPK (T202/Y204) ArrayScan assay; details: A-375, treated 1.5 or 2 hours, p-MAPK cytoplasmatic fluorescence, read-out: Array Scan A375 IC50
# Experimental: p-MAPK (T202/Y204) ArrayScan Assay
# A375 human melanoma cells, having a mutated B-RAF, are seeded in 384-well poly-lysine coated plates (Matrix) at a density of 1000 cells/well with appropriate medium supplemented with 10% FCS and incubated for 16-24 hours. Cells are treated for 1.5 or 2 hours with increasing doses of compounds (starting dose 10 μM, dilution factor 2.5). At the end of the treatment cells are fixed with p-formaldehyde 3.7% for 15-30 min, then washed twice with D-PBS […] and permeabilized with D-PBS containing 0.1% Triton X-100 and 1% BSA (Sigma-Aldrich) for 15 minutes at room temperature (staining solution). Anti-phospho-MAPK (T202/Y204) monoclonal antibody E10 (Cell Signaling, cat. #9106) diluted 1:100 is added in staining solution and incubated for 1 hour at 37° C. After removal of the primary antibody solution, the anti-mouse Cy™2-conjugated (Green) secondary antibody (Amersham) diluted 1:500 in staining solution containing 2 μg/ml DAPI is added. The plate is incubated for 1 hour at 37° C., washed twice and then red with Cellomics' ArrayScan VTI (4 fields/well, CytoNucTrans algorithm).
# The parameter “MEAN_RingAvgIntenCh2”, which measures the mean cytoplasmatic fluorescence intensity associated to p-MAPK staining, is reported as the final result.
# [2] = system: human melanoma cells A375 (with a mutated B-RAF); assay: In vitro cell proliferation assay, A375; details: A-375, 72 hours treatment, cellular ATP readout
# Experimental: (§1) In Vitro Cell Proliferation Assay
# (§2) Exponentially growing human melanoma cells A375 (with a mutated B-RAF) and human melanoma cells Mewo (with wild-type B-Raf) were seeded and incubated at 37° C. in a humidified 5% CO2 atmosphere. After 24 hours, scalar doses of the compound were added to the medium and cells oncubated for 72 hours. At the end of treatment, cells were washed and counted. Cell number was determined by a cellular adenosine triphosphate monitoring system. Cell proliferation was compared to control cells and the concentration inhibiting cell growth by 50% was calculated.
# [3] = system: human melanoma cells Mewo (with wild-type B-Raf); assay: In vitro cell proliferation assay, Mewo; details: 72 hours treatment, cellular ATP readout
# Experimental: as §1, §2
IC50 [1],IC50 [2],IC50 [3],SMILES
0.93 µM,1.02 µM,8.6 µM,"O=C(Nc1ccc(C(F)(F)F)cc1)Nc1cccc(-c2n[nH]cc2-c2ccncc2)c1 [Cmpd. 1, 1-[3-(4-Pyridin-4-yl-1H-pyrazol-3-yl)-phenyl]-3-(4-trifluoromethyl-phenyl)-urea]"
0.87 µM,1.75 µM,> 10 µM,"CNc1cc(-c2c[nH]nc2-c2c(F)ccc(NS(=O)(=O)c3cc(F)ccc3F)c2F)ccn1 [compound 53, N-{2,4-Difluoro-3-[4-(2-methylamino-pyridin-4-yl)-1H-pyrazol-3-yl]-phenyl}-2,5-difluoro-benzenesulfonamide]"
0.36 µM,0.72 µM,> 10 µM,"O=S(=O)(Nc1ccc(F)c(-c2n[nH]cc2-c2ccncc2)c1F)c1cc(F)ccc1F [Cmpd. 18, N-[2,4-Difluoro-3-(4-pyridin-4-yl-1H-pyrazol-3-yl)-phenyl]-2,5-difluoro-benzenesulfonamide]"
< 0.01 µM,< 0.02 µM,> 10 µM,"CCn1cc(-c2ccncc2)c(-c2c(F)ccc(NS(=O)(=O)c3cc(F)ccc3F)c2F)n1 [Cmpd. 51, N-[3-(1-Ethyl-4-pyridin-4-yl-1H-pyrazol-3-yl)-2,4-difluoro-phenyl]-2,5-difluoro-benzenesulfonamide]"
0.56 µM,1.38 µM,8.11 µM,"O=C(Nc1ccc(C(F)(F)F)cc1)Nc1cccc(-c2nn(CCF)cc2-c2ccncc2)c1 [Cmpd. 13, 1-{3-[1-(2-Fluoro-ethyl)-4-pyridin-4-yl-1H-pyrazol-3-yl]-phenyl}-3-(4-trifluoromethyl-phenyl)-urea]"
2.09 µM,4.31 µM,6.76 µM,"O=C(Nc1cccc(-c2nn(CCF)cc2-c2ccncc2)c1)Nc1ccc(Cl)c(C(F)(F)F)c1 [Cmpd. 5, 1-(4-Chloro-3-trifluoromethyl-phenyl)-3-{3-[1-(2-fluoro-ethyl)-4-pyridin-4-yl-1H-pyrazol-3-yl]-phenyl}-urea]"
0.04 µM,0.29 µM,> 10 µM,"CCn1cc(-c2ccncc2)c(-c2c(F)ccc(NS(=O)(=O)c3cccc(F)c3)c2F)n1 [Cmpd. 58, N-[3-(1-Ethyl-4-pyridin-4-yl-1H-pyrazol-3-yl)-2,4-difluoro-phenyl]-3-fluoro-benzenesulfonamide]"
1.26 µM,2.31 µM,5.84 µM,"CC(C)(C)c1ccc(NC(=O)c2cccc(-c3n[nH]cc3-c3ccncc3)c2)cc1 [Cmpd. 4, N-(4-tert-Butyl-phenyl)-3-(4-pyridin-4-yl-1H-pyrazol-3-yl)-benzamide]"
1.75 µM,3.63 µM,> 10 µM,"CC(C)C(=O)Nc1cc(-c2c[nH]nc2-c2cccc(NC(=O)Nc3ccc(C(F)(F)F)cc3)c2)ccn1 [compound 40, 2-methyl-N-(4-{3-[3-({[4-(trifluoromethyl)phenyl]carbamoyl}amino)phenyl]-1H-pyrazol-4-yl}pyridin-2-yl)propanamide]"
0.83 µM,3.17 µM,> 10 µM,"O=S(=O)(Nc1ccc(F)c(-c2n[nH]cc2-c2ccncc2)c1F)c1ccsc1 [Cmpd. 19, Thiophene-3-sulfonic acid [2,4-difluoro-3-(4-pyridin-4-yl-1H-pyrazol-3-yl)-phenyl]-amide]"
1.12 µM,1.9 µM,5.09 µM,"CC(C)Cn1cc(-c2ccncc2)c(-c2cccc(NC(=O)Nc3ccc(C(F)(F)F)cc3)c2)n1 [Cmpd. 50, 1-[3-(1-Isobutyl-4-pyridin-4-yl-1H-pyrazol-3-yl)-phenyl]-3-(4-trifluoromethyl-phenyl)-urea]"
< 0.01 µM,0.16 µM,> 10 µM,"Cn1cc(-c2ccncc2)c(-c2c(F)ccc(NS(=O)(=O)c3cc(F)ccc3F)c2F)n1 [compound 52, N-[3-(1-Methyl-4-pyridin-4-yl-1H-pyrazol-3-yl)-2,4-difluoro-phenyl]-2,5-difluoro-benzenesulfonamide]"
5.48 µM,9.14 µM,> 10 µM,"O=S(=O)(Nc1ccc(F)c(-c2n[nH]cc2-c2ccncc2)c1F)c1ccco1 [Cmpd. 20, Furan-2-sulfonic acid [2,4-difluoro-3-(4-pyridin-4-yl-1H-pyrazol-3-yl)-phenyl]amide]"
0.34 µM,3.18 µM,> 10 µM,"Nc1nccc(-c2c[nH]nc2-c2cccc(NS(=O)(=O)c3cc(F)ccc3F)c2)n1 [compound 34, N-{3-[4-(2-aminopyrimidin-4-yl)-1H-pyrazol-3-yl]phenyl}-2,5-difluorobenzene-sulfonamide]"
1.34 µM,2.89 µM,> 10 µM,"O=C(Cc1ccc(C(F)(F)F)cc1)Nc1cccc(-c2n[nH]cc2-c2ccncc2)c1 [Cmpd. 16, N-[3-(4-Pyridin-4-yl-1H-pyrazol-3-yl)-phenyl]-2-(4-trifluoromethyl-phenyl)-acetamide]"
2.51 µM,5.32 µM,> 10 µM,"CC(=O)Nc1nccc(-c2c[nH]nc2-c2cccc(NC(=O)Nc3ccc(C(F)(F)F)cc3)c2)n1 [compound 32, N-(4-{3-[3-({[4-(trifluoromethyl)phenyl]carbamoyl}amino)phenyl]-1H-pyrazol-4-yl}pyrimidin-2-yl)acetamide]"
4.65 µM,5.96 µM,> 10 µM,"Nc1cc(-c2c[nH]nc2-c2cccc(NC(=O)Nc3ccc(C(F)(F)F)cc3)c2)ccn1 [compound 12, 1-{3-[4-(2-aminopyridin-4-yl)-1H-pyrazol-3-yl]phenyl}-3-[4(trifluoromethyl)-phenyl]urea]"
0.17 µM,1.25 µM,> 10 µM,"CCNc1nccc(-c2c[nH]nc2-c2cccc(NS(=O)(=O)c3cc(F)ccc3F)c2)n1 [compound 55, N-(3-{4-[2-(ethylamino)pyrimidin-4-yl]-1H-pyrazol-3-yl}phenyl)-2,5-difluorobenzenesulfonamide]"
0.31 µM,0.97 µM,> 10 µM,"CCNc1cc(-c2c[nH]nc2-c2c(F)ccc(NS(=O)(=O)c3cc(F)ccc3F)c2F)ccn1 [compound 54, N-{3-[4-(2-Ethylamino-pyridin-4-yl)-1H-pyrazol-3-yl]-2,4-difluoro-phenyl}-2,5-difluoro-benzenesulfonamide]"
2.63 µM,6.94 µM,> 10 µM,"O=C(Nc1ccc(C(F)(F)F)cc1)Nc1cccc(-c2nn(CCO)cc2-c2ccncc2)c1 [Cmpd. 14, 1-{3-[1-(2-Hydroxy-ethyl)-4-pyridin-4-yl-1H-pyrazol-3-yl]-phenyl}-3-(4-trifluoromethyl-phenyl)-urea]"
< 0.01 µM,< 0.02 µM,> 10 µM,"CC(C)Cn1cc(-c2ccncc2)c(-c2c(F)ccc(NS(=O)(=O)c3cc(F)ccc3F)c2F)n1 [compound 56, N-[3-(1-i-Butyl-4-pyridin-4-yl-1H-pyrazol-3-yl)-2,4-difluoro-phenyl]-2,5-difluoro-benzenesulfonamide]"
0.23 µM,1.13 µM,7.69 µM,"N#CCn1cc(-c2ccncc2)c(-c2cccc(NC(=O)Nc3ccc(C(F)(F)F)cc3)c2)n1 [compound 11, 1-[3-(1-Cyanomethyl-4-pyridin-4-yl-1H-pyrazol-3-yl)-phenyl]-3-(4-trifluoromethyl-phenyl)-urea]"
5.52 µM,7.38 µM,> 10 µM,"O=S(=O)(Nc1cccc(-c2n[nH]cc2-c2ccncc2)c1)c1ccsc1 [Cmpd. 7, Thiophene-3-sulfonic acid [3-(4-pyridin-4-yl-1H-pyrazol-3-yl)-phenyl]-amide]"
1.79 µM,4.28 µM,> 10 µM,"CCCS(=O)(=O)Nc1ccc(F)c(-c2n[nH]cc2-c2ccncc2)c1F [Cmpd. 21, Propane-1-sulfonic acid [2,4-difluoro-3-(4-pyridin-4-yl-1H-pyrazol-3-yl)-phenyl]-amide]"
0.02 µM,0.33 µM,> 10 µM,"CCn1cc(-c2ccncc2)c(-c2c(F)ccc(NS(=O)(=O)c3ccccc3F)c2F)n1 [Cmpd. 57, N-[3-(1-Ethyl-4-pyridin-4-yl-1H-pyrazol-3-yl)-2,4-difluoro-phenyl]-2-fluoro-benzenesulfonamide]"
0.54 µM,1.63 µM,7.5 µM,"CCn1cc(-c2ccncc2)c(-c2cccc(NC(=O)Nc3ccc(C(F)(F)F)cc3)c2)n1 [compound 10, 1-[3-(1-Ethyl-4-pyridin-4-yl-1H-pyrazol-3-yl)-phenyl]-3-(4-trifluoromethyl-phenyl)-urea]"
0.41 µM,3.5 µM,> 10 µM,"O=C(CCCO)Nc1cc(-c2c[nH]nc2-c2cccc(NC(=O)Nc3ccc(C(F)(F)F)cc3)c2)ccn1 [compound 43, 4-hydroxy-N-(4-{3-[3-({[4-(trifluoromethyl)phenyl]carbamoyl}amino)phenyl]-1H-pyrazol-4-yl}pyridin-2-yl)butanamide]"
